Where two headings read alike, the source gives them in different places. *1 amine or outer side, *2 acyl side, *3 side chain or, on linkers, in order; H or OH if unused. Where a SMILES comes first, the peptide text is derived from it. Bridges are numbered along the chain shown (N, C = ends). [ ]: non-standard residue; d: D form. The star is where a group is joined. ξ: configuration not given here. ξPro(4ξ-NH2) = O=C(C1CC(N[*:3])CN1[*:1])[*:2]; X1 = O=C(Cc1ccc(N[*:1])cc1)[*:2]; NH(2-Me-phenyl) = Cc1ccccc1N*; CO = O=C([*:1])[*:2]
Key:
α4β1 integrin = biological target: T1, α4β1 integrin (Homo sapiens, UniProt P05556+P13612); test: Jurkat cell adhesion assay on VCAM-1-coated wells; assay type: cell-based; settings: Jurkat cell adhesion to VCAM-1 (2 μg/mL); means ± SD, n = 3; tested 0.1 nM to 100 μM; read-out: EC50/IC50 (IC50 for compounds reducing cell adhesion)
T1 construct: Jurkat cells endogenously express α4β1 integrin; host or cells: Jurkat E6.1 cells
T1 sequence (P13612 34-1032): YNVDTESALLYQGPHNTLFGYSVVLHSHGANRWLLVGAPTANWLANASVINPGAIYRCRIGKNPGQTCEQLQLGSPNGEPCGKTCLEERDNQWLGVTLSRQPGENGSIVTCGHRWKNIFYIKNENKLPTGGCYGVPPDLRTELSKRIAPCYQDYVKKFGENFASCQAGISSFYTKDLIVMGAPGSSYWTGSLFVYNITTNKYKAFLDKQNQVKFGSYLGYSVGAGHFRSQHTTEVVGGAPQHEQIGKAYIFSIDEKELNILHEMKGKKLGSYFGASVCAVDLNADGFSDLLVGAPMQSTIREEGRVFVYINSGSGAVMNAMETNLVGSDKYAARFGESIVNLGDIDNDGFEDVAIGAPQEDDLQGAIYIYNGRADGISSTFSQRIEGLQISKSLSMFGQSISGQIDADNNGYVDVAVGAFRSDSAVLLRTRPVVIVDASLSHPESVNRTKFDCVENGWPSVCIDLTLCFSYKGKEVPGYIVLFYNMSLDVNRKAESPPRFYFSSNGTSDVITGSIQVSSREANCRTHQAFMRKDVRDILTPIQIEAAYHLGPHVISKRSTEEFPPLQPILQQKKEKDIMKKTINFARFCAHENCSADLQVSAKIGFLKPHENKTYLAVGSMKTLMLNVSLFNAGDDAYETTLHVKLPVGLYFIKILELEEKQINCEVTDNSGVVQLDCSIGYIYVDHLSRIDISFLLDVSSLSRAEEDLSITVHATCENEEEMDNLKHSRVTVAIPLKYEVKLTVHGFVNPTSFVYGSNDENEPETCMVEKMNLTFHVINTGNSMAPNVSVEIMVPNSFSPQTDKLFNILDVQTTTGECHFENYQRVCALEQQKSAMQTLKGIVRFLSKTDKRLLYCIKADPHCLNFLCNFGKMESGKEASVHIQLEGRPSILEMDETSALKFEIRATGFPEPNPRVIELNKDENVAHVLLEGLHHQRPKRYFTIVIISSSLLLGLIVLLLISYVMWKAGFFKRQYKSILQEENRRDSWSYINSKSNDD
T1 sequence (P05556 21-798): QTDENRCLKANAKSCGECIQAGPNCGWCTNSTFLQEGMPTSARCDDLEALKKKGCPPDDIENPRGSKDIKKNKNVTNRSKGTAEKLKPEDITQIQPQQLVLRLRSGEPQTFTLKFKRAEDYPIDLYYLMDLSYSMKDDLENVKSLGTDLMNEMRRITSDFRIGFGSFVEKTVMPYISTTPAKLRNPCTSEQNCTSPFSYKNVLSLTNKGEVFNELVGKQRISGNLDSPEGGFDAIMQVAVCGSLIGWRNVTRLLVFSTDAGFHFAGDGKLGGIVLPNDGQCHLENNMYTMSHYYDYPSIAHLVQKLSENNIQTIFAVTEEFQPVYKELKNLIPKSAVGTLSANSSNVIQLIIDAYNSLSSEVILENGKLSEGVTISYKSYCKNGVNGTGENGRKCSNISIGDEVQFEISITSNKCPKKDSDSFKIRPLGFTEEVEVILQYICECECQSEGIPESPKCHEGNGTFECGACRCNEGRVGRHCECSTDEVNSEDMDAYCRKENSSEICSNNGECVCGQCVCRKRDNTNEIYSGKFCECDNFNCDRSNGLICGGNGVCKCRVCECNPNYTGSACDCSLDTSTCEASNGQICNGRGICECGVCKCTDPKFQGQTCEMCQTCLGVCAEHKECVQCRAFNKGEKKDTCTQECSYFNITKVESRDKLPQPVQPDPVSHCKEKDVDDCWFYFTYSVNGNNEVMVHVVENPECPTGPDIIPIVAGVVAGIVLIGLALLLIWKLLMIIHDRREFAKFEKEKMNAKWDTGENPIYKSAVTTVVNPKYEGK
Protocol: To investigate the ability of the newly synthesized cyclopeptidomimetics 12–18 to recognize and bind α4β1 integrin, cell adhesion assays were performed on VCAM-1. The compounds were evaluated for their ability to interfere with α4β1 integrin-mediated cell adhesion by using Jurkat cells, which are known to constitutively express this integrin [46, 48, 49, 50, 51].
Jurkat E6.1 cells were purchased from American Type Culture Collection (ATCC, Rockville, MD, USA) and were routinely cultured in RPMI-1640 (LifeTechnologies, Milan, Italy) supplemented with 10% FBS (fetal bovine serum, Life Technologies) and 2 mM glutamine. Cells were kept at 37 °C under 5% CO2 humidified atmosphere. Jurkat cells are a widely used cell model to study potential agonist or antagonist ligands able to modulate integrin-mediated cell adhesion. Jurkat cells endogenously express α4β1 integrin [13].
The assays were performed as previously described. In brief, black 96 well plates were coated with VCAM-1 (2 μg/mL) overnight at 4 °C; then, non-specific hydrophobic binding sites were blocked with 1% BSA (bovine serum albumin, Sigma-Aldrich) in HBSS (Life Technologies) for 30 min at 37 °C. Jurkat cells were labelled with CellTracker green CMFDA (12.5 μM, Life Technolgies) and pre-incubated with various concentration (10^−4–10^−10 M) of each new cyclopeptidomimetic or with the vehicle (DMSO) for 30 min at 37 °C. Afterwards, Jurkat cells were plated on VCAM-1-coated wells and incubated for 30 min at 37 °C. Then, wells were washed three times with 1% BSA in HBSS and Jurkat cells were lysed with 0.5% Triton X-100 in PBS for 30 min at 4 °C. Green fluorescence (Ex485 nm/Em 535 nm) was measured in an EnSpire Multimode Plate Reader (PerkinElmer, Waltham, MA, USA). Experiments were performed in quadruplicate and repeated at least three times. The number of adherent cells was determined by comparison with a standard curve made with a known concentration of labelled Jurkat cells. Data analysis and IC50/EC50 values were calculated using GraphPad Prism 6.0 (GraphPad Software, San Diego, CA, USA).
The number of adherent cells was determined as described above.

[1] = head-to-tail lactamisation (amide bond) of side-chain-protected linear peptides; HATU (3 equiv)/HOAt (3 equiv)/2,4,6-collidine (3 equiv); linear peptide + collidine added dropwise to HATU/HOAt, 5 h, argon; settings: the molecule shown is the open-chain precursor, DCM/DMF 15:1, 25.0 °C
[2] = amide bond, HATU/HOAt/collidine, DCM/DMF 15:1, 25.0 °C

Cc1ccccc1NC(=O)Nc1ccc(CC(=O)N2CC3CC2C(=O)NC(CC(C)C)C(=O)NC(CC(=O)O)C(=O)NC(C(C)C)C(=O)NCC(=O)N3)cc1 (stereo not drawn) [Compound 12, c[(MPUPA)Amp-Leu-Asp-Val-Gly]] ({NH(2-Me-phenyl)-CO}-[X1][ξPro(4ξ-NH2)]LDVG; lactam 2-C; configuration not given here)
IC50 (α4β1 integrin): > 100 µM

Cc1ccccc1NC(=O)Nc1ccc(CC(=O)N2CC3CC2C(=O)NC(CC(C)C)C(=O)NC(CCC(=O)O)C(=O)NC(C(C)C)C(=O)NCC(=O)N3)cc1 (stereo not drawn) [Compound 13, c[(MPUPA)Amp-Leu-Glu-Val-Gly]] ({NH(2-Me-phenyl)-CO}-[X1][ξPro(4ξ-NH2)]LEVG; lactam 2-C; configuration not given here)
IC50 (α4β1 integrin): > 100 µM

Cc1ccccc1NC(=O)Nc1ccc(CC(=O)N2CC3CC2C(=O)NC(CC(C)C)C(=O)NC(CC(=O)O)C(=O)NC(C(C)C)C(=O)N3)cc1 (stereo not drawn) [Compound 14, c[(MPUPA)Amp-Leu-Asp-Val]] ({NH(2-Me-phenyl)-CO}-[X1][ξPro(4ξ-NH2)]LDV; lactam 2-C; configuration not given here)
IC50 (α4β1 integrin): > 100 µM

Cc1ccccc1NC(=O)Nc1ccc(CC(=O)N2CC3CC2C(=O)NC(CC(C)C)C(=O)NC(CCC(=O)O)C(=O)NC(C(C)C)C(=O)N3)cc1 (stereo not drawn) [Compound 15, c[(MPUPA)Amp-Leu-Glu-Val]] ({NH(2-Me-phenyl)-CO}-[X1][ξPro(4ξ-NH2)]LEV; lactam 2-C; configuration not given here)
IC50 (α4β1 integrin): > 100 µM

Cc1ccccc1NC(=O)Nc1ccc(CC(=O)N2CC3CC2C(=O)NC(C(C)C)C(=O)NC(CCC(=O)O)C(=O)NC(CC(C)C)C(=O)N3)cc1 (stereo not drawn) [Compound 17, c[(MPUPA)Amp-Val-Glu-Leu]] ({NH(2-Me-phenyl)-CO}-[X1][ξPro(4ξ-NH2)]VEL; lactam 2-C; configuration not given here)
IC50 (α4β1 integrin): > 100 µM

Cc1ccccc1NC(=O)Nc1ccc(CC(=O)N2CC3CC2C(=O)NC(CCCNC(=N)N)C(=O)NCC(=O)NC(CC(=O)O)C(=O)N3)cc1 (stereo not drawn) [Compound 18, c[(MPUPA)Amp-Arg-Gly-Asp]] ({NH(2-Me-phenyl)-CO}-[X1][ξPro(4ξ-NH2)]RGD; lactam 2-C; configuration not given here)
IC50 (α4β1 integrin): > 100 µM

Cc1ccccc1NC(=O)Nc1ccc(CC(=O)N2C[C@@H](NC(=O)[C@@H](N)CC(=O)OC(C)(C)C)C[C@H]2C(=O)N[C@@H](CCCNC(=N)NS(=O)(=O)c2c(C)c(C)c3c(c2C)CCC(C)(C)O3)C(=O)NCC(=O)O)cc1 [H-Asp(tBu)-Amp(MPUPA)-Arg(Pmc)-Gly-OH]
ring closure, isolated yield ([1]; 14-membered ring): 43%

Cc1ccccc1NC(=O)Nc1ccc(CC(=O)N2C[C@@H]3C[C@H]2C(=O)N[C@@H](CCCNC(=N)NS(=O)(=O)c2c(C)c(C)c4c(c2C)CCC(C)(C)O4)C(=O)NCC(=O)N[C@@H](CC(=O)OC(C)(C)C)C(=O)N3)cc1 [H-Asp(tBu)-Amp(MPUPA)-Arg(Pmc)-Gly-OH]
ring closure, isolated yield ([2]; from H-Asp(tBu)-Amp(MPUPA)-Arg(Pmc)-Gly-OH, 14-membered ring, 0.52 mM): 43%

Cc1ccccc1NC(=O)Nc1ccc(CC(=O)N2C[C@@H](NC(=O)[C@@H](N)CC(C)C)C[C@H]2C(=O)N[C@H](C(=O)N[C@@H](CC(=O)OC(C)(C)C)C(=O)O)C(C)C)cc1 [H-Leu-Amp(MPUPA)-Val-Asp(tBu)-OH]
ring closure, isolated yield ([1]; 14-membered ring): 73%

Cc1ccccc1NC(=O)Nc1ccc(CC(=O)N2C[C@@H]3C[C@H]2C(=O)N[C@@H](C(C)C)C(=O)N[C@@H](CC(=O)OC(C)(C)C)C(=O)N[C@@H](CC(C)C)C(=O)N3)cc1 [H-Leu-Amp(MPUPA)-Val-Asp(tBu)-OH]
ring closure, isolated yield ([2]; from H-Leu-Amp(MPUPA)-Val-Asp(tBu)-OH, 14-membered ring, 0.78 mM): 73%

Cc1ccccc1NC(=O)Nc1ccc(CC(=O)N2C[C@@H](NC(=O)[C@@H](N)CC(C)C)C[C@H]2C(=O)N[C@H](C(=O)N[C@@H](CCC(=O)OC(C)(C)C)C(=O)O)C(C)C)cc1 [H-Leu-Amp(MPUPA)-Val-Glu(tBu)-OH]
ring closure, isolated yield ([1]; 14-membered ring): 73%

Cc1ccccc1NC(=O)Nc1ccc(CC(=O)N2C[C@@H]3C[C@H]2C(=O)N[C@@H](C(C)C)C(=O)N[C@@H](CCC(=O)OC(C)(C)C)C(=O)N[C@@H](CC(C)C)C(=O)N3)cc1 [H-Leu-Amp(MPUPA)-Val-Glu(tBu)-OH]
ring closure, isolated yield ([2]; from H-Leu-Amp(MPUPA)-Val-Glu(tBu)-OH, 14-membered ring, 0.74 mM): 73%

Cc1ccccc1NC(=O)Nc1ccc(CC(=O)N2C[C@@H](NC(=O)[C@@H](N)C(C)C)C[C@H]2C(=O)N[C@@H](CC(C)C)C(=O)N[C@@H](CC(=O)OC(C)(C)C)C(=O)O)cc1 [H-Val-Amp(MPUPA)-Leu-Asp(tBu)-OH]
ring closure, isolated yield ([1]; 14-membered ring): 69%

Cc1ccccc1NC(=O)Nc1ccc(CC(=O)N2C[C@@H]3C[C@H]2C(=O)N[C@@H](CC(C)C)C(=O)N[C@@H](CC(=O)OC(C)(C)C)C(=O)N[C@@H](C(C)C)C(=O)N3)cc1 [H-Val-Amp(MPUPA)-Leu-Asp(tBu)-OH]
ring closure, isolated yield ([2]; from H-Val-Amp(MPUPA)-Leu-Asp(tBu)-OH, 14-membered ring, 0.53 mM): 69%

Cc1ccccc1NC(=O)Nc1ccc(CC(=O)N2C[C@@H](NC(=O)[C@@H](N)C(C)C)C[C@H]2C(=O)N[C@@H](CC(C)C)C(=O)N[C@@H](CCC(=O)OC(C)(C)C)C(=O)O)cc1 [H-Val-Amp(MPUPA)-Leu-Glu(tBu)-OH]
ring closure, isolated yield ([1]; 14-membered ring): 65%

Cc1ccccc1NC(=O)Nc1ccc(CC(=O)N2C[C@@H]3C[C@H]2C(=O)N[C@@H](CC(C)C)C(=O)N[C@@H](CCC(=O)OC(C)(C)C)C(=O)N[C@@H](C(C)C)C(=O)N3)cc1 [H-Val-Amp(MPUPA)-Leu-Glu(tBu)-OH]
ring closure, isolated yield ([2]; from H-Val-Amp(MPUPA)-Leu-Glu(tBu)-OH, 14-membered ring, 0.76 mM): 65%

Cc1ccccc1NC(=O)Nc1ccc(CC(=O)N2C[C@@H](NC(=O)CNC(=O)[C@@H](N)C(C)C)C[C@H]2C(=O)N[C@@H](CC(C)C)C(=O)N[C@@H](CC(=O)OC(C)(C)C)C(=O)O)cc1 [H-Val-Gly-Amp(MPUPA)-Leu-Asp(tBu)-OH]
ring closure, isolated yield ([1]; 17-membered ring): 88%

Cc1ccccc1NC(=O)Nc1ccc(CC(=O)N2C[C@@H]3C[C@H]2C(=O)N[C@@H](CC(C)C)C(=O)N[C@@H](CC(=O)OC(C)(C)C)C(=O)N[C@@H](C(C)C)C(=O)NCC(=O)N3)cc1 [H-Val-Gly-Amp(MPUPA)-Leu-Asp(tBu)-OH]
ring closure, isolated yield ([2]; from H-Val-Gly-Amp(MPUPA)-Leu-Asp(tBu)-OH, 17-membered ring, 0.47 mM): 88%

Cc1ccccc1NC(=O)Nc1ccc(CC(=O)N2C[C@@H](NC(=O)CNC(=O)[C@@H](N)C(C)C)C[C@H]2C(=O)N[C@@H](CC(C)C)C(=O)N[C@@H](CCC(=O)OC(C)(C)C)C(=O)O)cc1 [H-Val-Gly-Amp(MPUPA)-Leu-Glu(tBu)-OH]
ring closure, isolated yield ([1]; 17-membered ring): 78%

Cc1ccccc1NC(=O)Nc1ccc(CC(=O)N2C[C@@H]3C[C@H]2C(=O)N[C@@H](CC(C)C)C(=O)N[C@@H](CCC(=O)OC(C)(C)C)C(=O)N[C@@H](C(C)C)C(=O)NCC(=O)N3)cc1 [H-Val-Gly-Amp(MPUPA)-Leu-Glu(tBu)-OH]
ring closure, isolated yield ([2]; from H-Val-Gly-Amp(MPUPA)-Leu-Glu(tBu)-OH, 17-membered ring, 0.48 mM): 78%
